Measurements as given in US20110269812A1, “NOVEL BENZYLIDENE-INDOLINONE AND THEIR MEDICAL AND DIAGNOSTIC USES” (Agency for Science, Technology and Research, priority 2008, published 2011).
Where two headings read alike, the source gives them in different places.

How the values were obtained:
CYP1A1 = assay: 7-ethoxyresorufin O-deethylase (EROD) assay, CYP1A1 induction in Hepa1c1c7 cells; assay type: cell-based, murine
Protocol: Hepa1c1c7 cells were plated at a density of 10000 cells per well in a 96-well plate and cultured for 24 h. A stock solution of test compound was prepared in DMSO and serially diluted with medium to give the desired concentration in the well. The final concentration of DMSO was 0.5% v/v. The cells were incubated with test compound for 48 h, after which the medium was removed, the well washed with 200 μl of 1×phosphate-buffered saline solution (PBS) and then incubated with 5 μM 7-ethoxyresorufin and 2 mM salicylamide in 200 μl of medium at 37° C., 40 min. Readings were taken at λexcitation of 530 nm and λemission of 590 nm on a fluorometer. Fluorescence (if any) of the test compound was determined at the same wavelengths to take into account its contribution to the observed readings. Readings of empty wells (no cells, “blank”) and wells with Hepa1c1c7 cells in medium containing 0.5% DMSO but without test compound (“control”) were also determined. TCDD, a strong inducer of CYP1A1 activity, as well as BNF and sulforaphane were used as controls.
CYP1A1 induction activity was given by the expression:
Degree of induction=FCells+test compound−FBlank/FControl−FBlank
The EROD assay was used for this purpose (Burke, M. D.; Mayer, R. T., Drug Metab Dispos 1974, 2, 583). EROD activity describes the rate at which CYP1A1 caused the O-deethylation of 7-ethoxyresorufin to resorufm. […] This ratio was determined for compounds at concentrations that were approximately 4 times their CD values. A fixed concentration was not used here because it would be difficult to select this concentration in view of the large variation in NQO1 induction activities. The quotient of NQO1 and CYP1A1 induction ratios (ratio determined at the same concentration) was also obtained for each compound. Values >1 would imply greater induction of NQO1 relative to CYP1A1.

NQO1 = assay: Induction of NQO1 (QR) activity in Hepa1c1c7 cells
Hepa1c1c7 cells = assay: MTT growth inhibition / cytotoxicity on Hepa1c1c7 cells; assay type: cell-based, murine; settings: Mus musculus, Hepa-1c1c7, 48 h, highest concentration tested 25 μM
Protocol: The antiproliferative activity of the compounds according to the invention was determined by the MTT assay on the following cell lines: MCF7 (human breast cancer cell line), HCT116 (human colon cancer cell line), and CCL186 (normal human diploid embryonic lung fibroblast). […] MCF7 and CCL186 cells were cultured in Eagle's Minimum Essential Medium (EMEM) with 1 mM sodium pyruvate, 1.5 g/L sodium bicarbonate, 2 mM L-glutamine supplemented with 10% FBS and 0.01% antibiotics. HCT116 cells were cultured in McCoy's 5A Medium with 2.2 g/L sodium bicarbonate supplemented with […] and 0.01% antibiotics. Cells were plated at the following densities: 10000 cells/well (MCF7), 4000 cells/well (HCT116), 5000 cells/well (CCL186). They were grown for 24 h in a 96-well plate, with 100 μl of corresponding medium in each well. The test compounds were prepared in DMSO and diluted to a series of concentrations with medium. Not more than 1% DMSO (final concentration) was present in each well. The test compounds were incubated with the cells for 72 h, after which 100 μl MTT solution (0.5 mg/ml in 1× PBS) was added for 3 h and the cells lysed to release the formazan product. The latter was dissolved in DMSO (150 μl) and absorbance determined within 30 min at 590 nm on a microtitre plate reader. Cell survival was given by the expression:
Cell survival (%)=[(Acells+test compound−Ablank)/(Auntreated cells−Ablank)]×100
where A is the absorbance of formazan measured at 590 nm in the test (Acells+test compound), control (Auntreated cells) or blank (Ablank) wells. Each concentration of test compound was evaluated on 3 separate occasions. […] The MTT assay was also carried out on Hepa1c1c7 cells for the purpose of determining cytotoxicity of test compounds. The same procedure was adopted except that the incubation period of compound with cells was 48 h, instead of 72 h.

THLE2 = assay: Cell viability assay (Cell Titer-Glo), THLE2 normal hepatocyte cell line; assay type: cell-based; settings: Homo sapiens, read-out: IC50 THLE2
Protocol: (§1) Cells were plated at 5000-7000 cells/per well and incubated for 24 h before treatment. […] Cell Titer-Glo (Promega, Madison, Wis.) assay was performed according to manufacturer's instruction with luminescence detected on SpectraMax M5 (Molecular Devices, Sunnyvale, Calif.). Data was expressed as percentage of viability vs. vehicle-treated controls.
(§2) The anti-cancer potential of these compounds against HCC were tested using a phenotypic assay where compounds were screened over 100-fold concentration range (0.1 to 10 μM) using two representative liver cancer cell lines, HepG2 and HuH7. Additionally, THLE2 was employed as normal hepatocyte cell line to differentiate anti-cancer potential from non-specific cytotoxicities.
(§3) Cell viability assay shown in FIG. 2 was analyzed by Prism5 for the determination of respective IC50 values.

HuH7 = assay: cells; assay type: cell-based, human; settings: for IC50 / viability at 10 µM: Homo sapiens; for IC50: read-out: IC50 HuH7; for viability at 10 µM: vs vehicle-treated controls, read-out: Percentage viability HuH7; for SR(HuH7/THLE2) safety ratio: percentage viability at 10 μM normalized with THLE2
Protocol: as §1, §2, §3
(§4) Cell viability was determined as described previous in Table 7. Percentage viability at 10 μM treatments was determined and safety ratios were calculated by normalizing survival in HCC cell lines to THLE2.

HepG2 = assay: cells; assay type: cell-based, human; settings: for IC50 / viability at 10 µM: Homo sapiens; for IC50: read-out: IC50 HepG2; for viability at 10 µM: vs vehicle-treated controls, read-out: Percentage viability HepG2; for SR(HepG2/THLE2) safety ratio: percentage viability at 10 μM normalized with THLE2
Protocol: as §1, §2, §3, §4

[1] = 1 μM, read off from plot of degree of induction versus concentration

Row | SMILES | melting point [°C] | IC50 (Hepa1c1c7 cells) [µM] | IC50 (THLE2; THLE-2, 72 h) [µM] | IC50 (HuH7; Huh-7, 72 h) [µM] | viability at 10 µM (HuH7; Huh-7, 72 h) [%] | SR(HuH7/THLE2) safety ratio (HuH7) | IC50 (HepG2; HepG2, 72 h) [µM] | viability at 10 µM (HepG2; HepG2, 72 h) [%] | SR(HepG2/THLE2) safety ratio (HepG2) | CYP1A1 induction ratio (CYP1A1; 1 μM, 48 h) | NQO1 induction ratio (NQO1; [1]) | other results
1 | O=c1cc(-c2ccccc2)oc2ccc3ccccc3c12 [BNF, β-naphthoflavone, reference compound] |  |  |  |  |  |  |  |  |  |  |  | CYP1A1 induction ratio (CYP1A1; 0.01 μM, read off from a curve): 1.13; NQO1 induction ratio (NQO1; 0.01 μM): 1.83; NQO1/CYP1A1 Quotient (NQO1; both ratios at 0.01 μM): 1.62
2 | COc1cccc(/C=C2/C(=O)Nc3cc(F)ccc32)c1 [Compound 39, (E)-6-Fluoro-3-(3-methoxybenzylidene)indolin-2-one] | 169 to 170 | 9.8 | > 10 | > 10 | 65.8 ± 1.1 | 1.19 | 7.6 | 40 ± 4.2 | 1.95 | 1.25 ± 0.06 | 3.21 | NQO1/CYP1A1 Quotient (NQO1; both ratios at 1 μM): 2.57
3 | COc1cccc(/C=C2/C(=O)Nc3ccc(Cl)cc32)c1 [Compound 40, (E)-5-Chloro-3-(3-methoxybenzylidene)indolin-2-one] | 212 to 214 | 17.5 | > 10 | > 10 | 57.5 ± 6.6 | 1.55 | 9.2 | 46.1 ± 2.2 | 1.93 |  |  | CYP1A1 induction ratio (CYP1A1; 2.5 μM, 48 h): 1.32 ± 0.08; NQO1 induction ratio (NQO1; 2.5 μM, read off from plot): 4.34; NQO1/CYP1A1 Quotient (NQO1; both ratios at 2.5 μM): 3.29
4 | COc1cccc(/C=C2/C(=O)Nc3cc(Cl)ccc32)c1 [Compound 41, (E)-6-Chloro-3-(3-methoxybenzylidene)indolin-2-one] | 198 to 200 | > 25 | > 10 | > 10 | 102 ± 6.9 | 0.87 | 8.5 | 46.4 ± 2.5 | 1.90 |  |  | CYP1A1 induction ratio (CYP1A1; 0.1 μM, 48 h): 1.51 ± 0.13; NQO1 induction ratio (NQO1; 0.1 μM, read off from plot): 2.56; NQO1/CYP1A1 Quotient (NQO1; both ratios at 0.1 μM): 1.70
5 | COc1ccc(/C=C2/C(=O)Nc3cc(F)ccc32)cc1O [Compound 43, (E)-6-Fluoro-3-(3-hydroxy-4-methoxybenzylidene)indolin-2-one] | 225 to 227 | 15.6 | > 10 | > 10 | 84.1 ± 7.5 | 1.22 | 1.2 | 28.3 ± 6.7 | 3.63 |  |  | CYP1A1 induction ratio (CYP1A1; 0.5 μM, 48 h): 2.05 ± 0.07; NQO1 induction ratio (NQO1; 0.5 μM, read off from plot): 4.10; NQO1/CYP1A1 Quotient (NQO1; both ratios at 0.5 μM): 2.00
6 | COc1ccc(/C=C2/C(=O)Nc3cc(Cl)ccc32)cc1O [Compound 44, (E)-6-Chloro-3-(3-hydroxy-4-methoxybenzylidene)indolin-2-one] | 220 to 223 | > 25 | > 10 | > 10 | 63 ± 4 | 1.36 | 1 | 15 ± 1.3 | 5.72 | 2.33 ± 0.13 | 5.09 | NQO1/CYP1A1 Quotient (NQO1; both ratios at 1 μM): 2.18
7 | CCN(CC)CCNC(=O)c1c(C)[nH]c(/C=C2\C(=O)Nc3ccc(F)cc32)c1C [Sunitinib, reference compound] |  |  |  |  | 3.4 ± 0.2 |  |  | 1.8 ± 0.3 |  |  |  | IC50 (THLE2; THLE-2, viability (intracellular ATP, Cell Titer-Glo), 72 h, 0.1 to 10 μM, normal liver cell line): 4.5 µM; IC50 (HuH7; Huh-7, viability (intracellular ATP, Cell Titer-Glo), 72 h, 0.1 to 10 μM): 4.7 µM; IC50 (HepG2; HepG2, viability (intracellular ATP, Cell Titer-Glo), 72 h, 0.1 to 10 μM): 4.5 µM
8 | Clc1cc2c(cc1Cl)Oc1cc(Cl)c(Cl)cc1O2 [TCDD, 2,3,7,8-Tetrachlorodibenzo-p-dioxin, reference compound] |  |  |  |  |  |  |  |  |  |  |  | CYP1A1 induction ratio (EROD assay) (CYP1A1; 1 nM): 2.99
9 | C[S+]([O-])CCCCN=C=S (centres unmarked) [sulforaphane, reference compound] |  |  |  |  |  |  |  |  |  | 0.924 | 3.89 | 
